ChEMBL document CHEMBL1151474, “Replication of Colonic Crohn's Disease Mucosal Escherichia coli Isolates within Macrophages and Their Susceptibility to Antibiotics” (Antimicrob Agents Chemother, 2008)
Converted amounts (≈) assume the structure as drawn. The source made the active and inactive calls. The rule behind the calls is not given here.

Columns and labels:
Escherichia coli [1] = test: Antibacterial activity against mucosa-associated Escherichia coli isolates isolated from patients with Crohn's disease by disk diffusion method; format: functional
J774.A1 [2] = test: Cytotoxicity against mouse J774A1 cells assessed as release of adenylate kinase at 100 ug/ml after 3 hrs […] relative to control; format: cell-based; conditions: j774.a1, 3 h
Escherichia coli [3] = test: Antibacterial activity against Escherichia coli ATCC 25922 after 24 hrs by Etest antibiotic concentration gradient method; format: functional, organism-based
Escherichia coli [4] = test: Antibacterial activity against gentamicin-treated internalized Escherichia coli isolate HM580 in mouse J774A1 cells isolated from colonic mucosal biopsies of patient with Crohn's disease assessed as intracellular killing of bacteria at 10% compound Cmax after 3 hrs; format: functional, J774.A1
Escherichia coli [5] = test: Antibacterial activity against Escherichia coli isolate HM154 isolated from colonic mucosal biopsies of patient with Crohn's disease after 24 hrs by Etest antibiotic concentration gradient method; format: functional; conditions: isolate HM154, 24 h
J774.A1 [6] = test: Cytotoxicity against mouse J774A1 cells assessed as macrophage number at 1.7 ug/ml after 3 hrs by total cell protein assay; format: cell-based; conditions: j774.a1, 3 h
Escherichia coli [7] = test: Antibacterial activity against Escherichia coli isolate HM615 isolated from colonic mucosal biopsies of patient with Crohn's disease after 24 hrs by Etest antibiotic concentration gradient method; format: functional; conditions: isolate HM615, 24 h
Escherichia coli [8] = test: Antibacterial activity against gentamicin-treated internalized Escherichia coli isolate HM605 isolated from colonic mucosal biopsies of patient with Crohn's disease in mouse J774A1 cells assessed as intracellular killing of bacteria at 1.7 ug/ml after 3 hrs; format: functional, J774.A1
Escherichia coli [9] = test: Antibacterial activity against gentamicin-treated internalized Escherichia coli isolate HM605 in mouse J774A1 cells isolated from colonic mucosal biopsies of patient with Crohn's disease assessed as intracellular killing of bacteria at 10% compound Cmax after 3 hrs; format: functional, J774.A1
Escherichia coli [10] = test: Antibacterial activity against Escherichia coli isolate HM605 isolated from colonic mucosal biopsies of patient with Crohn's disease
Escherichia coli [11] = test: Antibacterial activity against gentamicin-treated internalized Escherichia coli isolate LF82 in mouse J774A1 cells isolated from chronic ileal lesions of patient with Crohn's disease assessed as intracellular killing of bacteria at 10% compound Cmax after 3 hrs; format: functional, J774.A1
Escherichia coli [12] = test: Antibacterial activity against gentamicin-treated internalized Escherichia coli isolate HM615 in mouse J774A1 cells isolated from colonic mucosal biopsies of patient with Crohn's disease assessed as intracellular killing of bacteria at 10% compound Cmax after 3 hrs; format: functional, J774.A1
[13] = Cmax in patient with Billroth-II gastrectomy at 250 mg, po; format: ADME, organism-based; parameters: dose 250 mg, route oral; conditions: human, in vivo
Escherichia coli [14] = test: Antibacterial activity against Escherichia coli isolate HM605 isolated from colonic mucosal biopsies of patient with Crohn's disease after 24 hrs by Etest antibiotic concentration gradient method; format: functional; conditions: isolate HM605, 24 h
Escherichia coli [15] = test: Antibacterial activity against mucosa-associated Escherichia coli isolate HM456 isolated from patient with irritable bowel syndrome or sporadic polyps after 24 hrs by Etest antibiotic concentration gradient method; format: functional; conditions: isolate HM456, 24 h
Escherichia coli [16] = test: Antibacterial activity against Escherichia coli isolate HM95 isolated from ileal mucosal biopsies of patient with Crohn's disease after 24 hrs by Etest antibiotic concentration gradient method; format: functional; conditions: isolate HM95, 24 h
Escherichia coli [17] = test: Antibacterial activity against extracellular Escherichia coli isolate HM605 isolated from colonic mucosal biopsies of patient with Crohn's disease at 0.01 to 10 ug/ml after 3 hrs; format: functional, organism-based
Escherichia coli [18] = test: Antibacterial activity against Escherichia coli isolate HM580 isolated from colonic mucosal biopsies of patient with Crohn's disease after 24 hrs by Etest antibiotic concentration gradient method; format: functional; conditions: isolate HM580, 24 h
Escherichia coli [19] = test: Antibacterial activity against mucosa-associated Escherichia coli isolate HM428 isolated from patient with irritable bowel syndrome or sporadic polyps after 24 hrs by Etest antibiotic concentration gradient method; format: functional; conditions: isolate HM428, 24 h
Escherichia coli [20] = test: Antibacterial activity Escherichia coli isolate HM419 isolated from ileo-colonic mucosal biopsies of patient with Crohn's disease after 24 hrs by Etest antibiotic concentration gradient method; format: functional; conditions: isolate HM419, 24 h
Escherichia coli [21] = test: Antibacterial activity Escherichia coli isolate HM413 isolated from ileo-colonic mucosal biopsies of patient with Crohn's disease after 24 hrs by Etest antibiotic concentration gradient method; format: functional; conditions: isolate HM413, 24 h
Escherichia coli [22] = test: Antibacterial activity against gentamicin-treated internalized Escherichia coli isolate HM605 in mouse J774A1 cells isolated from colonic mucosal biopsies of patient with Crohn's disease assessed as intracellular killing of bacteria at 0.1 to 100 ug/ml after 3 hrs; format: functional, organism-based; conditions: J774.A1
Escherichia coli [23] = test: Antibacterial activity against gentamicin-treated internalized Escherichia coli isolate HM605 in mouse J774A1 cells isolated from colonic mucosal biopsies of patient with Crohn's disease assessed as intracellular killing of bacteria at 0.1 to 100 ug/ml after 6 hrs; format: functional, organism-based; conditions: J774.A1
Escherichia coli [24] = test: Antibacterial activity against extracellular Escherichia coli isolate HM605 isolated from colonic mucosal biopsies of patient with Crohn's disease at 0.1 to 100 ug/ml after 3 hrs; format: functional, organism-based
Escherichia coli [25] = test: Antibacterial activity against gentamicin-treated internalized Escherichia coli isolate HM605 isolated from colonic mucosal biopsies of patient with Crohn's disease in mouse J774A1 cells assessed as intracellular killing of bacteria at 3.2 ug/ml after 3 hrs; format: functional, J774.A1
Escherichia coli [26] = test: Antibacterial activity against gentamicin-treated internalized Escherichia coli isolate HM605 in mouse J774A1 cells isolated from colonic mucosal biopsies of patient with Crohn's disease assessed as intracellular killing of bacteria at 0.1 to 100 ug/ml after 24 hrs; format: functional, organism-based; conditions: J774.A1
[27] = Cmax in healthy human at 500 mg administered orally; format: ADME, organism-based; parameters: dose 500 mg, route oral; conditions: in vivo, po
Escherichia coli [28] = test: Antibacterial activity against extracellular Escherichia coli isolate HM605 isolated from colonic mucosal biopsies of patient with Crohn's disease assessed as colony count at 0.1 to 100 ug/ml after 3 hrs; format: functional, organism-based
Escherichia coli [29] = test: Antibacterial activity against Escherichia coli isolate HM605 isolated from colonic mucosal biopsies of patient with Crohn's disease assessed as killing of bacteria at 100 ug/ml; format: functional
[30] = Cmax in healthy human at 160 mg administered orally; conditions: in vivo, po
Escherichia coli [31] = test: Antibacterial activity against gentamicin-treated internalized Escherichia coli isolate HM605 in mouse J774A1 cells isolated from colonic mucosal biopsies of patient with Crohn's disease assessed as intracellular killing of bacteria at 18 ug/ml after 6 hrs; format: functional, organism-based; conditions: J774.A1
Escherichia coli [32] = test: Antibacterial activity against gentamicin-treated internalized Escherichia coli isolate HM605 in mouse J774A1 cells isolated from colonic mucosal biopsies of patient with Crohn's disease assessed as reduction in intracellular bacterial viability at 18 ug/ml after 24 hrs; format: functional, organism-based; conditions: J774.A1
Escherichia coli [33] = test: Antibacterial activity against gentamicin-treated internalized Escherichia coli isolate HM605 in mouse J774A1 cells isolated from colonic mucosal biopsies of patient with Crohn's disease assessed as intracellular killing of bacteria at 18 ug/ml after 3 hrs; format: functional, organism-based; conditions: J774.A1
Escherichia coli [34] = test: Antibacterial activity against mucosa-associated Escherichia coli isolate HM454 isolated from patient with irritable bowel syndrome or sporadic polyps after 24 hrs by Etest antibiotic concentration gradient method; format: functional; conditions: isolate HM454, 24 h
J774.A1 [35] = test: Cytotoxicity against mouse J774A1 cells assessed as macrophage number at 3 ug/ml after 3 hrs by total cell protein assay; format: cell-based; conditions: j774.a1, 3 h
Escherichia coli [36] = test: Antibacterial activity against Escherichia coli isolates isolated from patients with Crohn's disease at 5 ug/disk by susceptibility testing disk method; format: functional
Escherichia coli [37] = test: Antibacterial activity against Escherichia coli K-12 after 24 hrs by Etest antibiotic concentration gradient method; format: functional; conditions: K-12, 24 h
Escherichia coli [38] = test: Antibacterial activity against gentamicin-treated internalized Escherichia coli isolate HM605 isolated from colonic mucosal biopsies of patient with Crohn's disease in mouse J774A1 cells assessed as intracellular killing of bacteria at 3 ug/ml after 3 hrs; format: functional, J774.A1

| Compound | Activity (Escherichia coli [1]) | Activity (J774.A1 [2]) | Activity (Escherichia coli [3]) | Activity (Escherichia coli [4]) | MIC (Escherichia coli [5]) | MIC (Escherichia coli [7]) | Activity (Escherichia coli [9]) | MBC (Escherichia coli [10]) | Activity (Escherichia coli [11]) | Activity (Escherichia coli [12]) | MIC (Escherichia coli [14]) | MIC (Escherichia coli [15]) | MIC (Escherichia coli [16]) | Activity (Escherichia coli [17]) | MIC (Escherichia coli [18]) | MIC (Escherichia coli [19]) | MIC (Escherichia coli [20]) | MIC (Escherichia coli [21]) | Cmax [27] | other results |
| --- | --- | --- | --- | --- | --- | --- | --- | --- | --- | --- | --- | --- | --- | --- | --- | --- | --- | --- | --- | --- |
| CC1(C)S[C@@H]2[C@H](NC(=O)Cc3ccccc3)C(=O)N2[C@H]1C(=O)O [PENICILLIN G] | 0% | 90% | – | – | – | – | – | – | – | – | – | – | – | – | – | – | – | – | – | – |
| CN(C)[C@@H]1C(O)=C(C(N)=O)C(=O)[C@@]2(O)C(O)=C3C(=O)c4c(O)cccc4[C@@](C)(O)[C@H]3C[C@@H]12 [TETRACYCLINE] | 67% | 90% | Active | 62.4% | ≤ 4 µg/mL | ≤ 4 µg/mL | 44.8% | 1 µg/mL (≈ 2.25 µM) | 64.2% | 69.6% | 2 µg/mL (≈ 4.5 µM) | ≤ 4 µg/mL | ≤ 4 µg/mL | Active | ≤ 4 µg/mL | ≤ 4 µg/mL | ≤ 4 µg/mL | ≤ 4 µg/mL | – | Activity (J774.A1 [6]): 55.9; Activity (Escherichia coli [8]): 62.8%; Cmax [13]: 1700 ng/mL |
| CC1(C)S[C@@H]2[C@H](NC(=O)[C@H](N)c3ccccc3)C(=O)N2[C@H]1C(=O)O [AMPICILLIN] | 95% | 90% | Active | 9.6% | – | – | 20.4% | > 100 µg/mL | 10.9% | 13.8% | > 256 µg/mL | – | – | Active | – | – | – | – | 3200 ng/mL | Activity (Escherichia coli [22]): inactive; Activity (Escherichia coli [23]): inactive; Activity (Escherichia coli [24]): Active; Activity (Escherichia coli [25]): 11.1%; Activity (Escherichia coli [26]): inactive; Activity (Escherichia coli [28]): Active; Activity (Escherichia coli [29]): 99.8% |
| COc1cc(Cc2cnc(N)nc2N)cc(OC)c1OC [TRIMETHOPRIM] | 100% | 90% | Active | 46.9% | ≤ 4 µg/mL | ≤ 4 µg/mL | 49.1% | 100 µg/mL (≈ 344 µM) | 50.2% | 61.7% | > 32 µg/mL | ≤ 4 µg/mL | ≤ 4 µg/mL | Active | ≤ 4 µg/mL | ≤ 4 µg/mL | ≤ 4 µg/mL | ≤ 4 µg/mL | – | Cmax [30]: 2300 ng/mL |
| GENTAMICIN | 100% | – | – | – | – | – | – | – | – | – | – | – | – | – | – | – | – | – | – | Activity (Escherichia coli [31]): 0.3%; Activity (Escherichia coli [32]): 54.8%; Activity (Escherichia coli [33]): 7.8% |
| CC[C@H]1OC(=O)[C@H](C)[C@@H](O[C@H]2C[C@@](C)(OC)[C@@H](O)[C@H](C)O2)[C@H](C)[C@@H](O[C@@H]2O[C@H](C)C[C@H](N(C)C)[C@H]2O)[C@](C)(OC)C[C@@H](C)C(=O)[C@H](C)[C@@H](O)[C@]1(C)O [CLARITHROMYCIN] | – | 90% | – | 57.5% | ≥ 16 µg/mL | ≥ 16 µg/mL | 33.5% | 3 µg/mL (≈ 4.01 µM) | 55.2% | 81.8% | 16 µg/mL (≈ 21.4 µM) | ≥ 16 µg/mL | ≥ 16 µg/mL | Active | ≥ 16 µg/mL | ≥ 16 µg/mL | ≥ 16 µg/mL | ≥ 16 µg/mL | 3000 ng/mL | MIC (Escherichia coli [34]): ≥ 16 µg/mL; Activity (J774.A1 [35]): 73.4; Activity (Escherichia coli [36]): 0%; MIC (Escherichia coli [37]): 24 µg/mL (≈ 32.1 µM); Activity (Escherichia coli [38]): 62.1% |
